According to PMC6756013, “B591, a novel specific pan-PI3K inhibitor, preferentially targets cancer stem cells” (Oncogene, 2019):

Key:
Assay in all cases: Biochemical kinase profiling (Life Technologies)
FLT1 (VEGFR1) = molecular target: T1, FLT1 (VEGFR1) (Homo sapiens, UniProt P17948)
T1 construct: purchased Life Technologies
Experimental: (§1) Purified PI3K Class I Lipid Kinase, including p110α/p85α, p110β/p85α, p110γ, and p110δ/p85α (Promega, Madison, WI, USA), was respectively incubated with B591 for 30 min at room temperature. The activity of PI3K was evaluated using a PI3-Kinase Activity ELISA kit (K-1000s, Echelon, Salt Lake City, UT, USA) according to the manufacture’s instructions. The assay is a competitive ELISA in which the signal is inversely proportional to the amount of PI(3,4,5)P3 produced. After the PI3-Kinase reactions are complete, reaction products are first mixed and incubated with a PI(3,4,5)P3 detector protein, then added to the PI(3,4,5)P3-coated microplate for competitive binding. A peroxidase-linked secondary detector and colorimetric detection is used to detect PI(3,4,5)P3 detector binding to the plate. The colorimetric signal is inversely proportional to the amount of PI(3,4,5)P3 produced by PI3-Kinase. The absorbance was measured at 450 nm with a Multilabel Reader (PerkinElmer, Waltham, MA, USA). ATP competition assays were executed with varying concentrations of ATP, and five concentrations of ATP were 5 μM, 25 μM, 50 μM, 100 μM, and 200 μM respectively. The IC50 values for inhibition of PI3Kβ by B591 were determined at indicated concentrations of ATP. In addition, B591 selectivity was tested against 39 kinases at Life Technologies.

AMPK A1/B1/G1 = AMPK A1/B1/G1 (Homo sapiens, UniProt P54619+Q13131+Q9Y478)
Experimental: as §1

PRKCZ (PKC zeta) = molecular target: T2, PRKCZ (PKC zeta) (Homo sapiens, UniProt Q05513)
T2 construct: purchased Life Technologies
Experimental: as §1

MET (cMet) = molecular target: T3, MET (cMet) (Homo sapiens, UniProt P08581)
T3 construct: purchased Life Technologies
Experimental: as §1

T1 sequence (P17948 27-1338): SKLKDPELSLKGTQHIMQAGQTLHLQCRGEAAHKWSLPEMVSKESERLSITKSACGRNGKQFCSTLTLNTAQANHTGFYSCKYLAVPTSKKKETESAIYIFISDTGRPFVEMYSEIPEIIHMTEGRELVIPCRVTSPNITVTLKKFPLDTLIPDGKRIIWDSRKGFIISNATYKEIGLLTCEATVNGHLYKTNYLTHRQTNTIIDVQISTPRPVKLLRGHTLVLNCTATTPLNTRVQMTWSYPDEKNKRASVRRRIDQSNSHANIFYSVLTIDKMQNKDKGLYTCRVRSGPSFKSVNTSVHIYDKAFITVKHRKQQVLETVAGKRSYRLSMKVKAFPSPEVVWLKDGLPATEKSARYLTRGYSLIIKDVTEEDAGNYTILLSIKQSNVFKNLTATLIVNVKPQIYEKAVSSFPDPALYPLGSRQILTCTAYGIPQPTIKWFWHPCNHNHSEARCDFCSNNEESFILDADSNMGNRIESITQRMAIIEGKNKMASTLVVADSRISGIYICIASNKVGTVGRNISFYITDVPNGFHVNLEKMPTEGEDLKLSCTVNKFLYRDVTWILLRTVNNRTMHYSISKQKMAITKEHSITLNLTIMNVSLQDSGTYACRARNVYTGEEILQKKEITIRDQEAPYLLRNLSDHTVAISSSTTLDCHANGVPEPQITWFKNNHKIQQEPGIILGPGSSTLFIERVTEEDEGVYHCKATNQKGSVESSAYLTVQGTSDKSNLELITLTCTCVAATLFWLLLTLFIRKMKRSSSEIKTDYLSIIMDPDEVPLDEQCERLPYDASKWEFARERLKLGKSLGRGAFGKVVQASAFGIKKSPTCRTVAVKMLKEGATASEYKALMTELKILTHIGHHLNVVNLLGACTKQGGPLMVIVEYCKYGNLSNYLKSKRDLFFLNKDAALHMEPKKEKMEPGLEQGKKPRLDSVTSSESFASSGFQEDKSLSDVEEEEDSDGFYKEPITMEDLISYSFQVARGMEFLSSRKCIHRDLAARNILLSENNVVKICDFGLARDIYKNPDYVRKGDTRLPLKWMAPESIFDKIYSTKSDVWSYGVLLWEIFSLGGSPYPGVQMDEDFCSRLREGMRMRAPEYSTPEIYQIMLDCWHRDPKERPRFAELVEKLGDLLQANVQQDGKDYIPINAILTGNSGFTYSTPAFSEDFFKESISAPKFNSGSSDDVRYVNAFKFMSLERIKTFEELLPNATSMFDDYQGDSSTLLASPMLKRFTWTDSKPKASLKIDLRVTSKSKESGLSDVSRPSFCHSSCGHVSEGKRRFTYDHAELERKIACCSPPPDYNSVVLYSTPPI
T3 sequence (P08581 25-1390): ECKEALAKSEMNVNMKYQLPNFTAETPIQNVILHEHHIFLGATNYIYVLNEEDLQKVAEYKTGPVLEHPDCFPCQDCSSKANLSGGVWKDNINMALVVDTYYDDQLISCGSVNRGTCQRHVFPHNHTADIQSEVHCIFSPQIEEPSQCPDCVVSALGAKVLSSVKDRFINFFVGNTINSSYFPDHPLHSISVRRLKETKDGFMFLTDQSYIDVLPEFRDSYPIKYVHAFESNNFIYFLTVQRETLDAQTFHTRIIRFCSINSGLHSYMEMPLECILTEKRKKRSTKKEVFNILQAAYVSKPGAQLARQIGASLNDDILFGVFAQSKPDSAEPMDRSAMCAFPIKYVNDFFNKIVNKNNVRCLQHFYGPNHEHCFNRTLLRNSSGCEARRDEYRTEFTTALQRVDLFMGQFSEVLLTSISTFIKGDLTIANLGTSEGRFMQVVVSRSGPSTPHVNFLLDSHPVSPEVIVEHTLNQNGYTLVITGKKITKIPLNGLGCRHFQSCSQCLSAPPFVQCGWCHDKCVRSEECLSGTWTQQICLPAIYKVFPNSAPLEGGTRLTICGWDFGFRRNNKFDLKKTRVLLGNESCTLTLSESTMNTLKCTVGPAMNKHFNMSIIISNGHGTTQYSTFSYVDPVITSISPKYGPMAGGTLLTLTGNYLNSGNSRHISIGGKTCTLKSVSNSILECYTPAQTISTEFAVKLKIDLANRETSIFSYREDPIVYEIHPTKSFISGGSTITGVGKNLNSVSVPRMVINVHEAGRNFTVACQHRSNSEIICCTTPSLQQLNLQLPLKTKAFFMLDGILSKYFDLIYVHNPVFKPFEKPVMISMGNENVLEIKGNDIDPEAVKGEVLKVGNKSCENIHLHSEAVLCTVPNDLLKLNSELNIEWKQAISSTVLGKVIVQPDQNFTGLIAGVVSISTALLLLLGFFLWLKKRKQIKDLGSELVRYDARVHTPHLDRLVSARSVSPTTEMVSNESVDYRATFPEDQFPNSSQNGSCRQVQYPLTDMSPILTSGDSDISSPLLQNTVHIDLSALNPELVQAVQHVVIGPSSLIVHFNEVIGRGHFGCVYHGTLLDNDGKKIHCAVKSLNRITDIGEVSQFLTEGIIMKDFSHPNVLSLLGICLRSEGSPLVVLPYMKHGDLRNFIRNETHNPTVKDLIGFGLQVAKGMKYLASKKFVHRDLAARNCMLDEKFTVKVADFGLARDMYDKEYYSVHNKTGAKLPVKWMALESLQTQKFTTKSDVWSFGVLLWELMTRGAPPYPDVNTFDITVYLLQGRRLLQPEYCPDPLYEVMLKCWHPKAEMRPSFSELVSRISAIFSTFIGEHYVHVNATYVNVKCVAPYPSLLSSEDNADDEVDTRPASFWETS
AMPK A1/B1/G1, sequence (Q13131 whole entry): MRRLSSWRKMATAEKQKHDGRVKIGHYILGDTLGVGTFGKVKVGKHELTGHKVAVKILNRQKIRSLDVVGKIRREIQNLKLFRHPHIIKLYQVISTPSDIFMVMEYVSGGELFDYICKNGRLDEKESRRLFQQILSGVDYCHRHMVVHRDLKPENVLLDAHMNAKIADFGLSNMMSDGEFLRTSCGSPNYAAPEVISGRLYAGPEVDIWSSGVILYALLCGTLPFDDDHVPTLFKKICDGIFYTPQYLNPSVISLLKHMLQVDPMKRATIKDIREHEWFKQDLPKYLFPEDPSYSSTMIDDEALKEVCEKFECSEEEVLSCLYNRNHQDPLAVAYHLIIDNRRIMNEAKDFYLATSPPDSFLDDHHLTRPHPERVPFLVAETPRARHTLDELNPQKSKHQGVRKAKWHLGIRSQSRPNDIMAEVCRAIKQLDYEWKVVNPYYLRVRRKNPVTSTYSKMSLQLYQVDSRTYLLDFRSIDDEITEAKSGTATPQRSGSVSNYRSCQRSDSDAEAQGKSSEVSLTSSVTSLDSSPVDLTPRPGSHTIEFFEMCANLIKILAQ
AMPK A1/B1/G1, sequence (Q9Y478 whole entry partner): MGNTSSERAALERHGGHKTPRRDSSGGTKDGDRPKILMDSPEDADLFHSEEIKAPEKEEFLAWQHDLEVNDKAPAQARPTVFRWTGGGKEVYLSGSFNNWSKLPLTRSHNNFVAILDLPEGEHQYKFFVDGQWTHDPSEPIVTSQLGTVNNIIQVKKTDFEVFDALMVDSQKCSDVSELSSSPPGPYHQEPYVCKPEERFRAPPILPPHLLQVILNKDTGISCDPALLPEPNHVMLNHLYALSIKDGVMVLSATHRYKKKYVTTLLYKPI
AMPK A1/B1/G1, sequence (P54619 whole entry partner): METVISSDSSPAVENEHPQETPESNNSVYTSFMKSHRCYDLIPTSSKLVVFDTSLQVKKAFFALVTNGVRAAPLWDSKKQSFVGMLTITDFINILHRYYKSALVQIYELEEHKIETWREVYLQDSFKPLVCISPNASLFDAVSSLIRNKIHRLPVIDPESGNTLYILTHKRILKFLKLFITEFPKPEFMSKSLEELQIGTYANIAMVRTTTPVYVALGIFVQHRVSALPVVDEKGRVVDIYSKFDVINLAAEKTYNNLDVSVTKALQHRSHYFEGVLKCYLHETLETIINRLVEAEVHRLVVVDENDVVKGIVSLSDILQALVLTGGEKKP
T2 sequence (Q05513 whole entry): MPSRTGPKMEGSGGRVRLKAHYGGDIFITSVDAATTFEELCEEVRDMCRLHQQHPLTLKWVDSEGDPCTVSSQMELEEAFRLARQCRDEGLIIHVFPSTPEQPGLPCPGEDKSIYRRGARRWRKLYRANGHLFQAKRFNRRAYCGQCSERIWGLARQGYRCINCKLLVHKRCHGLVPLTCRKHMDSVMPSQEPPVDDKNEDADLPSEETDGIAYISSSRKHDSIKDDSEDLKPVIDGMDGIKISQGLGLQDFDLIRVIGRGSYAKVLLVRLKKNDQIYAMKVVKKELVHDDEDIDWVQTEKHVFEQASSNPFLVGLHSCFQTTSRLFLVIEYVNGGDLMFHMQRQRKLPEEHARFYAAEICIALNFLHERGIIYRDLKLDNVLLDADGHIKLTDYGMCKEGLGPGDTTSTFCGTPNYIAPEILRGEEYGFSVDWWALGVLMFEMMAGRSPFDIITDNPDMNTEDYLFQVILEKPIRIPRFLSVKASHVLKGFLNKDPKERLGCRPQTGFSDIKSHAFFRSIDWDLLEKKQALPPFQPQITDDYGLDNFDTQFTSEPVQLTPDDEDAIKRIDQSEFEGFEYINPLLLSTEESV

IC50 (FLT1 (VEGFR1)): > 500 µM
IC50 (AMPK A1/B1/G1): > 500 µM
IC50 (PRKCZ (PKC zeta)): > 500 µM
IC50 (MET (cMet)): > 500 µM
SMILES: Cc1cc2c(cc1C)[n+](Cc1ccccc1Br)cn2Cc1ccc2c(c1)CCO2.[Br-] [B591, 3-(2-bromobenzyl)-1-((2,3-dihydrobenzofuran-5-yl)methyl) -5,6-dimethyl-1H-benzo[d]imidazol-3-ium bromide]
